Reference: the supplement of paper PMC11061612

Assays:
Experiment in all cases: Bliss excess, mean over the matrix (fraction); higher = more synergy
[1] = test system: BFTC-905 (Bladder Carcinoma)
Outline: (§1)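 Cell lines in DMEM/F12 or RPMI with 10% FBS were plated in 1536-well plates, held 24 hours at 37°C, 5% CO2, then given two-drug dose matrices for 72 hours (DMSO typically 0.2%). Viability was read by CellTiter-Glo 2.0 luminescence and scaled as inhibition from 0 (vehicle wells) to 1 (blank wells). Combination Emax is the second-highest inhibition in the matrix; Bliss excess is observed combination effect minus expected EA + EB − EA·EB, EA and EB being single-agent effects.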

[2] = test system: CHP-212 (Neuroblastoma)
Outline: as §1

[3] = test system: DND-41 (T-Lymphoblastic Leukemia)
Outline: as §1

[4] = test system: ES1 (Ewing's Sarcoma)
Outline: as §1

[5] = test system: ES8 (Ewing's Sarcoma)
Outline: as §1

[6] = test system: GR-ST (B-Lymphoblastic Leukemia)
Outline: as §1

[7] = test system: HL-60 (Acute Myeloid Leukemia)
Outline: as §1

[8] = test system: K-562 (Chronic Myelogenous Leukemia)
Outline: as §1

[9] = test system: KM12 (Colorectal Carcinoma)
Outline: as §1

[10] = test system: KYSE-180 (Esophageal Squamous Cell Carcinoma)
Outline: as §1

[11] = test system: LN-18 (Glioblastoma)
Outline: as §1

[12] = test system: MOLT-16 (T-Lymphoblastic Leukemia)
Outline: as §1

[13] = test system: MS751 (Cervical Carcinoma)
Outline: as §1

[14] = test system: NCI-H1792 (Lung Adenocarcinoma)
Outline: as §1

[15] = test system: PANC-08-13 (Pancreatic Carcinoma)
Outline: as §1

[16] = test system: SR (Other Blood Carcinomas)
Outline: as §1

[17] = test system: TC-71 (Ewing's Sarcoma)
Outline: as §1

[18] = test system: TOV-112D (Ovarian Carcinoma)
Outline: as §1

[19] = test system: U251 (Low Grade Glioma)
Outline: as §1

[20] = test system: WIL2-NS (Non-Cancerous)
Outline: as §1

## COc1cccc(OCCCN)c1-c1cc(Nc2cnc(C#N)cn2)n[nH]1 [Prexasertib] + C=CCn1c(=O)c2cnc(Nc3ccc(N4CCN(C)CC4)cc3)nc2n1-c1cccc(C(C)(C)O)n1 [AZD1775] (first compound max 1 µM, partner max 1 µM)
[1]
  Bliss excess: 0.147
[2]
  Bliss excess: -0.0368
[3]
  Bliss excess: -0.0247
[4]
  Bliss excess: 0.0948
[5]
  Bliss excess: 0.0633
[6]
  Bliss excess: -0.0448
[7]
  Bliss excess: 0.0981
[8]
  Bliss excess: 0.0497
[9]
  Bliss excess: 0.0787
[10]
  Bliss excess: 0.132
[11]
  Bliss excess: 0.042
[12]
  Bliss excess: 0.0716
[13]
  Bliss excess: 0.0653
[14]
  Bliss excess: 0.0638
[15]
  Bliss excess: -0.0174
[16]
  Bliss excess: -0.014
[17]
  Bliss excess: 0.0949
[18]
  Bliss excess: 0.137
[19]
  Bliss excess: 0.0943
[20]
  Bliss excess: 0.0513

## COc1cccc(OCCCN)c1-c1cc(Nc2cnc(C#N)cn2)n[nH]1 [Prexasertib] + CCc1c2c(nc3ccc(O)cc13)-c1cc3c(c(=O)n1C2)COC(=O)[C@]3(O)CC [SN-38] (first compound max 1 µM, 7x7, partner max 0.3 µM)
[1]
  Bliss excess: -0.0004
[2]
  Bliss excess: -0.094
[3]
  Bliss excess: -0.103
[4]
  Bliss excess: 0.0085
[5]
  Bliss excess: -0.0301
[6]
  Bliss excess: -0.106
[7]
  Bliss excess: -0.0203
[8]
  Bliss excess: 0.0726
[9]
  Bliss excess: 0.0186
[10]
  Bliss excess: 0.0525
[11]
  Bliss excess: 0.07
[12]
  Bliss excess: 0.0103
[13]
  Bliss excess: 0.0628
[14]
  Bliss excess: 0.0204
[15]
  Bliss excess: 0.0182
[16]
  Bliss excess: -0.0378
[17]
  Bliss excess: 0.0187
[18]
  Bliss excess: 0.0183
[19]
  Bliss excess: 0.0241
[20]
  Bliss excess: -0.0234

## COc1cccc(OCCCN)c1-c1cc(Nc2cnc(C#N)cn2)n[nH]1 [Prexasertib] + CN(C)CCCOc1ccc(-c2ccc3ncc4c(c3c2)n(C2CCOCC2)c(=O)n4C)cn1 [AZD0156] (first compound max 1 µM, 7x7, partner max 1 µM)
[1]
  Bliss excess: 0.0125
[2]
  Bliss excess: -0.0377
[3]
  Bliss excess: -0.101
[4]
  Bliss excess: 0.0127
[5]
  Bliss excess: -0.011
[6]
  Bliss excess: -0.0287
[7]
  Bliss excess: -0.0026
[8]
  Bliss excess: -0.0217
[9]
  Bliss excess: -0.0095
[10]
  Bliss excess: 0.0022
[11]
  Bliss excess: 0.0304
[12]
  Bliss excess: 0.05
[13]
  Bliss excess: 0.02
[14]
  Bliss excess: -0.0104
[15]
  Bliss excess: -0.027
[16]
  Bliss excess: -0.0266
[17]
  Bliss excess: 0.026
[18]
  Bliss excess: 0.0332
[19]
  Bliss excess: -0.0092
[20]
  Bliss excess: -0.0281

## COc1cccc(OCCCN)c1-c1cc(Nc2cnc(C#N)cn2)n[nH]1 [Prexasertib] + C[C@@H]1COCCN1C2=NC(=NC(=C2)C3(CC3)[S@](=N)(=O)C)C4=C5C=CNC5=NC=C4 [AZD6738] (first compound max 1 µM, 7x7, partner max 10 µM)
[1]
  Bliss excess: 0.0096
[2]
  Bliss excess: -0.0776
[3]
  Bliss excess: -0.0651
[4]
  Bliss excess: -0.0142
[5]
  Bliss excess: -0.0371
[6]
  Bliss excess: -0.0845
[7]
  Bliss excess: -0.0289
[8]
  Bliss excess: -0.0435
[9]
  Bliss excess: -0.0494
[10]
  Bliss excess: -0.0702
[11]
  Bliss excess: 0.0188
[12]
  Bliss excess: 0.0291
[13]
  Bliss excess: 0.0539
[14]
  Bliss excess: -0.0129
[15]
  Bliss excess: -0.0421
[16]
  Bliss excess: -0.0164
[17]
  Bliss excess: -0.0164
[18]
  Bliss excess: 0.0177
[19]
  Bliss excess: -0.0193
[20]
  Bliss excess: -0.0021

## COc1cccc(OCCCN)c1-c1cc(Nc2cnc(C#N)cn2)n[nH]1 [Prexasertib] + Cc1cc2ncnn2cc1Nc1ncc2c(n1)n(C1CCOCC1)c(=O)n2C [AZD7648] (first compound max 1 µM, 7x7, partner max 10 µM)
[1]
  Bliss excess: -0.0492
[2]
  Bliss excess: -0.0467
[3]
  Bliss excess: -0.0979
[4]
  Bliss excess: 0.0088
[5]
  Bliss excess: -0.0489
[6]
  Bliss excess: -0.0363
[7]
  Bliss excess: 0.0133
[8]
  Bliss excess: -0.0282
[9]
  Bliss excess: -0.0399
[10]
  Bliss excess: -0.0431
[11]
  Bliss excess: -0.0198
[12]
  Bliss excess: 0.0121
[13]
  Bliss excess: -0.0156
[14]
  Bliss excess: -0.0227
[15]
  Bliss excess: -0.0089
[16]
  Bliss excess: 0.0003
[17]
  Bliss excess: -0.0419
[18]
  Bliss excess: -0.0241
[19]
  Bliss excess: -0.0114
[20]
  Bliss excess: -0.0285

## COc1cccc(OCCCN)c1-c1cc(Nc2cnc(C#N)cn2)n[nH]1 [Prexasertib] + O=C(c1cc(Cc2n[nH]c(=O)c3ccccc23)ccc1F)N1CCN(C(=O)C2CC2)CC1 [Olaparib] (first compound max 1 µM, 7x7, partner max 10 µM)
[1]
  Bliss excess: -0.0751
[2]
  Bliss excess: -0.0592
[3]
  Bliss excess: -0.101
[4]
  Bliss excess: -0.0161
[5]
  Bliss excess: -0.066
[6]
  Bliss excess: -0.111
[7]
  Bliss excess: -0.0781
[8]
  Bliss excess: -0.105
[9]
  Bliss excess: -0.0192
[10]
  Bliss excess: -0.0371
[11]
  Bliss excess: -0.0368
[12]
  Bliss excess: -0.0198
[13]
  Bliss excess: 0.034
[14]
  Bliss excess: -0.0161
[15]
  Bliss excess: -0.076
[16]
  Bliss excess: 0.0119
[17]
  Bliss excess: -0.017
[18]
  Bliss excess: 0.0277
[19]
  Bliss excess: 0.0369
[20]
  Bliss excess: -0.0174

## COc1cc2c(cc1OCCCCCOc1cc3c(cc1OC)C(=O)N1C=C(C)C[C@H]1C=N3)N=C[C@@H]1CC(C)=CN1C2=O [SG3199] + O=C(c1cc(Cc2n[nH]c(=O)c3ccccc23)ccc1F)N1CCN(C(=O)C2CC2)CC1 [Olaparib] (first compound max 0.001 µM, 7x7, partner max 10 µM)
[1]
  Bliss excess: -0.054
[2]
  Bliss excess: 0.0046
[3]
  Bliss excess: -0.0067
[4]
  Bliss excess: 0.0027
[5]
  Bliss excess: -0.0206
[6]
  Bliss excess: -0.0339
[7]
  Bliss excess: -0.034
[8]
  Bliss excess: -0.0041
[9]
  Bliss excess: -0.0301
[10]
  Bliss excess: -0.0177
[11]
  Bliss excess: -0.0119
[12]
  Bliss excess: 0.0336
[13]
  Bliss excess: -0.075
[14]
  Bliss excess: -0.0479
[15]
  Bliss excess: -0.0319
[16]
  Bliss excess: 0.0238
[17]
  Bliss excess: -0.0224
[18]
  Bliss excess: -0.0167
[19]
  Bliss excess: -0.0016
[20]
  Bliss excess: -0.0239
